Measured values reported in patent US20240050564A1, “COMBINATION THERAPY USING AN ANTI-FUCOSYL-GM1 ANTIBODY” (BRISTOL-MYERS SQUIBB COMPANY, priority 2021, published 2024).

Assays:
DMS79 cells [1] = experiment: DMS-79 SCLC tumor model in mice, anti-fucosyl-GM1 and cisplatin (Example 1); assay type: in vivo, male C.B17 SCID mice; conditions: BMS-986012 0.3 mg/kg i.p. days 7, 10, 13, 17, 21; cisplatin 3 mg/kg days 7, 14, 21, 28 (alone with isotype control antibody)
Description: Median tumor volumes are presented for groups of 8 mice at each data point. See Example 1.
(§1) A combination therapy method of the present invention involving antibody to fucosyl-GM1 and cisplatin was tested in the DMS-79 SCLC tumor model in mice ([…] mice per group). Bepler et al. (1989) Oncogene 4:45; Pettengill (1980) Cancer 45: 906; Pettengill et al. (1980) Exp. Cell Biol. 48:279. Briefly, DMS79 cells were cultured in RPMI with 10% fetal bovine serum (FBS), 2 mM L-glutamine, […] sodium bicarbonate, 4.5 g/L glucose, 10 mM HEPES, and 10 μM NaPyr prior to subcutaneous implantation in the right flanks of male C.B17 SCID mice (5 million cells in 0.1 mL phosphate-buffered saline (PBS) and 0.1 mL […]® gelatinous protein mixture per flank). When tumors reached a mean or median size of 80-155 mm^3 estimated by L×W×H/2 using a digital calipers, mice were randomized into treatment groups (N=8 mice per group).
Anti-fucosyl-GM1 antibody BMS-986012 was administered at 0.3 mg/kg i.p. to mice on days 7, 10, 13, 17 and 21 post implantation, and cisplatin was administered at 3 mg/kg on days 7, 14, 21 and 28. Because fucosyl-GM1 is a ganglioside rather than a protein, and is the same in mice as in humans, there was no need to use a “mouse surrogate” for mouse studies. Cisplatin was administered in combination with BMS-986012 and with an isotype control antibody at 3 mg/kg as a control. […]

[2] = test system: small cell lung cancer (SCLC); conditions: nivolumab monotherapy, 147 patients; cited from earlier work
DMS79 cells [3] = experiment: DMS-79 SCLC tumor model in mice, anti-fucosyl-GM1 and etoposide (Example 2); assay type: in vivo; conditions: BMS-986012 3 mg/kg i.p. days 7, 11, 15, 18, 21; etoposide 15 mg/kg i.p. days 7, 9, 11 (alone with isotype control antibody)
Description: Median tumor volumes are presented for groups of 8 mice at each data point. See Example 2.
as §1
A combination therapy method of the present invention involving antibody to fucosyl-GM1 and etoposide was tested in the DMS-79 SCLC tumor model in mice (N=9 mice per group), essentially as described in Example 1. Anti-fucosyl-GM1 antibody BMS-986012 was administered at 3 mg/kg i.p. to mice on days 7, 11, 15, 18 and 21 post-implantation, and etoposide was administered at 15 mg/kg i.p. on days 7, 9 and 11. […]

[4] = Binding of BMS-986012 to fucosyl-GM1
From the text: (§2) BMS-986012 is a first-in-class fully human monoclonal antibody (mAb) that specifically binds to the fucosyl-GM1 ganglioside. […] Because fucosyl-GM1 is preferentially found on the surface of lung cancer cells, BMS-986012 is particularly well suited to treating lung cancer, such as small cell lung cancer (SCLC).

[5] = Binding to closely related molecule GM1
From the text: as §2

Fc receptors = conditions: non-fucosylated Fc domain; cited from earlier work
[6] = non-fucosylated, compared to an antibody with typical mammalian glycosylation; cited from earlier work

N.N.[Cl][Pt][Cl] [cisplatin, reference compound]
tumor growth (median tumor volume, FIG. 1) (DMS79 cells [1]): effective as monotherapy to reduce tumor growth

nivolumab: anti-PD-1 mAb comprising heavy chains of SEQ ID NO: 13 and light chains of SEQ ID NO: 14
published ORR [2]: 12%
published disease control rate [2]: 29%

COc1cc([C@@H]2c3cc4c(cc3[C@@H](O[C@@H]3O[C@@H]5CO[C@@H](C)O[C@H]5[C@H](O)[C@H]3O)[C@H]3COC(=O)[C@H]23)OCO4)cc(OC)c1O [etoposide, reference compound]
tumor growth (median tumor volume, FIG. 2) (DMS79 cells [3]): somewhat effective as monotherapy to reduce tumor growth

BMS-986012: anti-fucosyl-GM1 mAb comprising heavy chains of SEQ ID NO: 3 and light chains of SEQ ID NO: 4
binding to fucosyl-GM1 [4]: high-affinity and dose-dependent saturable binding
antigen-specific binding to GM1 [5]: no detectable antigen-specific binding
tumor growth (median tumor volume, FIG. 1) (DMS79 cells [1]): effective as monotherapy to reduce tumor growth
tumor growth (median tumor volume, FIG. 2) (DMS79 cells [3]): somewhat effective as monotherapy to reduce tumor growth
affinity for Fc receptors (Fc receptors): higher affinity
antibody-dependent cellular cytotoxicity (ADCC) [6]: enhanced
